[invAb] = inverted abasic unit; d = 2'-deoxy (DNA); m = 2'-O-methyl; r = 2'-OH (RNA); f = 2'-fluoro
Legend:
mTSLP mRNA = test: Initial screening: mouse TSLP mRNA knock-down by RT-PCR (Taqman) after RNAiMax transfection of NIH 3T3 cells; format: cell-based; conditions: 10 nM siNA, 24 hrs post-transfection, mean ± s.d., summary from 2 screens
TSLP mRNA [1] = test: Initial screening: TSLP mRNA knock-down by RT-PCR (Taqman) after RNAiMax transfection of NHLF cells; format: cell-based; conditions: 10 nM siNA, human NHLF cells; for % KD TSLP: 24 hrs post-transfection, relative to non-targeting control, normalized to GAPDH, mean ± s.d. from 2 experiments; for % KD TSLP (10 nM): mean ± s.d. (Table 5)
TSLP mRNA [2] = test: Dose response curves of TSLP mRNA knock-down in NHLF cells; format: cell-based; conditions: human NHLF cells, mean ± s.d.; for IC50: TSLP mRNA knock-down, 12 concentrations from 0.083 fM to 30 nM; for Maximum % KD in DRC: 12 concentrations of siNA from 0.083 fM to 30 nM
Procedure: NHLF (human; Lonza cat# CC-2512): Cells were cultured at 37° C. in the presence of 5% CO2 and grown Fibroblast Basal Medium (Lonza cat# CC-3β2) supplemented growth factors (provided with the kit) and 100 μg/mL of streptomycin and 100 U/mL penicillin.
Dose response curves were carried out in a similar fashion in 96-well plates, while maintaining a constant amount of RNAiMax in each transfection.
RNA was extracted from a 96-well plate using the TaqMan® Gene Expression Cells-to-CT™ Kit (Cat# 4399002) with a modified protocol. Briefly, a 60 uL (1 plate) or 110 uL (2 plates) of the Lysis Solution with DNase I was dispensed into each well of the Lysis Buffer Plate (twin.tec full skirt plate). The lysis buffer and stop plates were stored at 4° C. until the cells were washed.
Each well of the reverse transcription plate required 10 uL of 2× reverse transcriptase Buffer, luL of 20× reverse transcription enzyme and 2 uL of nuclease-free water. The reverse transcription master mix was prepared by mixing 2× reverse transcription buffer, 20× reverse transcription enzyme mix, and nuclease-free water. 13 uL of the reverse transcription master mix was dispensed into each well of the reverse transcription plate (semi-skirted). A separate reverse transcription plate was prepared for each cell plate. The plate was loaded onto a Biomek NX or Biomek FX Dual-96 and the Biomek method was run. The program is programmed to automatically added 7 uL of lysate from the cell lysis procedure described above into each well of the reverse transcription plate. The plate is sealed and spun on a centrifuge (1000 rpm for 30 seconds) to settle the contents to the bottom of the reverse transcription plate. The plate is placed in a thermocycler at 37° C. for 60 min, 95° C. for 5 min, and 4° C. until the plate is removed from the thermocycler. Upon removal, if not used immediately, the plate was frozen at −20° C.
A series of probes and primers were used to detect the various mRNA transcripts of the genes of TSLP, IL-8 and GAPDH in human cell lines. All the Taqman probes and primers for the experiments here-in described were supplied as pre-validated sets by Applied Biosystems, Inc. (see Table 2). The assays were performed on an ABI 7900 instrument, according to the manufacturer's instructions.
A TaqMan Gene Expression Master Mix (provided in the Cells-to-CT™, Applied Biosystems, Cat #4399002) was used. The PCR reactions were carried out at 50° C. for 2 min, 95° C. for 20 min followed by 40 cycles at 95° C. for 15 secs and 60° C. for 1 min.
The expression level of the gene of interest and % knock-down was calculated using Comparative Ct method: […]
All calculations of IC50s were performed using SigmaPlot 10.0 software. The data were analyzed using the sigmoidal dose-response (variable slope) equation for simple ligand binding. In all of the calculations of the % knock-down, the calculation was made relative to the normalized level of expression of the gene of interest in the samples treated with the non-targeting control (Ctrl siNA) unless otherwise indicated.
Summary data, as to potency and efficacy for TSLP mRNA knock-down in human cells for certain siNA molecules, is presented in Table 5. Cells for the experiments were treated with 12 concentrations of siNA ranging from 0.083 fM to 30 nM. All of the data is presented as % knockdown of TSLP normalized against the expression of GAPDH mRNA expression level. Then the data was determined as a % knockdown relative to the non-targeting control siNA.

TSLP protein = test: TSLP ELISA in IL-1β/TNFα-stimulated NHLF cells; format: cell-based, human; conditions: relative to UC3 siRNA at matched concentration, siNA range 10 nM-0.00015 nM, concentration of the value not stated, mean ± s.d.
Procedure: In a 96-well plate, 57,500 NHLFcells/well were seeded in 100 uL of complete growth media and incubated overnight at 37° C. with 5% CO2. The cells were transfected with siNAs using RNAiMax (Invitrogen, Cat#13778-150); final concentration of siNAs is 10 nM-0.00015 nM. The amount of RNAiMax in each well is 0.3 uL. The siNAs were incubated for 6 hours. The medium was replaced with 95 uL of fresh complete growth medium and 5 uL/well of IL-1β/TNFα at 10 ng/ml final concentration was added. The cells were incubated for 24 hours. 95 uL of the medium from each well was collected into a separate 96-well plate. The samples were frozen immediately at −80° C. until ready the assay was ready to be performed.
ELISA was performed using DuoSet ELISA Development System (R&D systems, Cat # DY1398) according to the manufacturer's instructions. A seven point standard curve using 2-fold serial dilution in reagent diluent buffer and a high standard of 1000 pg/ml was used. The samples were not diluted. Absorbance was obtained at […] (LM1) and […] (LM2) and the difference (LM1-LM2) was recorded on a SpectraMax plate reader (Molecular Devices) within 30 minutes of stopping the reaction.
Various siNAs were also evaluated for their potential to knock-down TSLP protein using an ELISA assay. Six siNAs were tested in an TSLP ELISA assay across a range of concentrations of siNAs and the level of reduction of protein was determined relative to treatment of the cells with identical concentrations of the negative universal control siNA (UC3) (see Table 6).

25434-DC: siNA duplex: sense B GuGGuAuAuAcAAGuAGAu TTB (SEQ ID NO: 51), antisense AUCuAcuuGuAuAuAccAcUU (SEQ ID NO: 52) (sense GUGGUAUAUACAAGUAGAUTT; antisense AUCUACUUGUAUAUACCACUU; sense: DNA at AGT, 2'-fluoro at CU, [invAb] at 5' end, 3' end, backbone not given here; antisense: sugars from the 5' end rrrfmfffmfmfmfmffmfmm, backbone not given here)
% KD mTSLP NIH3T3 (mTSLP mRNA): 12.6 ± 6.5% | % KD TSLP (TSLP mRNA [1]): 85 ± 7.6% | % KD TSLP (10 nM) (TSLP mRNA [1]): 85 ± 7.6% | IC50 (TSLP mRNA [2]): 6.7 ± 2.5 pM | Maximum % KD in DRC (TSLP mRNA [2]): 79 ± 3% | % Reduction TSLP Protein (TSLP protein): 82.1 ± 11.8%

25436-DC: siNA duplex: sense B GccAAGuuuuAAAuAuuAu TTB (SEQ ID NO: 55), antisense AUAAuAuuuAAAAcuuGGcUU (SEQ ID NO: 56) (sense GCCAAGUUUUAAAUAUUAUTT; antisense AUAAUAUUUAAAACUUGGCUU; sense: DNA at AGT, 2'-fluoro at CU, [invAb] at 5' end, 3' end, backbone not given here; antisense: sugars from the 5' end rrrmfmfffmmmmfffmmfmm, backbone not given here)
% KD mTSLP NIH3T3 (mTSLP mRNA): 19.3 ± 6.1% | % KD TSLP (TSLP mRNA [1]): 90 ± 5.1% | % KD TSLP (10 nM) (TSLP mRNA [1]): 90 ± 5.1% | IC50 (TSLP mRNA [2]): 4.1 ± 1.6 pM | Maximum % KD in DRC (TSLP mRNA [2]): 86 ± 3% | % Reduction TSLP Protein (TSLP protein): 71.7 ± 20.3%

25438-DC: siNA duplex: sense B GAAGcAAuuuGAAAuAAuu TTB (SEQ ID NO: 59), antisense AAUuAuuucAAAuuGcuucUU (SEQ ID NO: 60) (sense GAAGCAAUUUGAAAUAAUUTT; antisense AAUUAUUUCAAAUUGCUUCUU; sense: DNA at AGT, 2'-fluoro at CU, [invAb] at 5' end, 3' end, backbone not given here; antisense: sugars from the 5' end rrrfmffffmmmffmffffmm, backbone not given here)
% KD mTSLP NIH3T3 (mTSLP mRNA): 9.8 ± 12.2% | % KD TSLP (TSLP mRNA [1]): 85 ± 6.8% | % KD TSLP (10 nM) (TSLP mRNA [1]): 85 ± 6.8% | IC50 (TSLP mRNA [2]): 4.1 ± 1.2 pM | Maximum % KD in DRC (TSLP mRNA [2]): 79 ± 4% | % Reduction TSLP Protein (TSLP protein): 51.9 ± 14.1%

25446-DC: siNA duplex: sense B cAGAAGAGuuucuuAAcuu TTB (SEQ ID NO: 75), antisense AAGuuAAGAAAcucuucuGUU (SEQ ID NO: 76) (sense CAGAAGAGUUUCUUAACUUTT; antisense AAGUUAAGAAACUCUUCUGUU; sense: DNA at AGT, 2'-fluoro at CU, [invAb] at 5' end, 3' end, backbone not given here; antisense: sugars from the 5' end r3 f2 m6 f7 m3, backbone not given here)
% KD mTSLP NIH3T3 (mTSLP mRNA): −32.1 ± 18.3% | % KD TSLP (TSLP mRNA [1]): 84 ± 3.6% | % KD TSLP (10 nM) (TSLP mRNA [1]): 84 ± 3.6% | IC50 (TSLP mRNA [2]): 9.1 ± 2.4 pM | Maximum % KD in DRC (TSLP mRNA [2]): 85 ± 2% | % Reduction TSLP Protein (TSLP protein): 64.7 ± 3.5%

25449-DC: siNA duplex: sense B AGAAGAGuuucuuAAcuuA TTB (SEQ ID NO: 81), antisense UAAGuuAAGAAAcucuucuUU (SEQ ID NO: 82) (sense AGAAGAGUUUCUUAACUUATT; antisense UAAGUUAAGAAACUCUUCUUU; sense: sugars from the 5' end d7 f6 d2 f3 d3, [invAb] at 5' end, 3' end, backbone not given here; antisense: sugars from the 5' end rrrmffmmmmmmfffffffmm, backbone not given here)
% KD mTSLP NIH3T3 (mTSLP mRNA): 52.9 ± 11.8% | % KD TSLP (TSLP mRNA [1]): 84 ± 2.1% | % KD TSLP (10 nM) (TSLP mRNA [1]): 84 ± 2.1% | IC50 (TSLP mRNA [2]): 10.2 ± 3.1 pM | Maximum % KD in DRC (TSLP mRNA [2]): 82 ± 1% | % Reduction TSLP Protein (TSLP protein): 45 ± 23.2%

25450-DC: siNA duplex: sense B AuuuuGuGAAcAcuuuuGA TTB (SEQ ID NO: 83), antisense UCAAAAGuGuucAcAAAAuUU (SEQ ID NO: 84) (sense AUUUUGUGAACACUUUUGATT; antisense UCAAAAGUGUUCACAAAAUUU; sense: DNA at AGT, 2'-fluoro at CU, [invAb] at 5' end, 3' end, backbone not given here; antisense: sugars from the 5' end rrrmmmmfmfffmfmmmmfmm, backbone not given here)
% KD mTSLP NIH3T3 (mTSLP mRNA): 8.8 ± 11% | % KD TSLP (TSLP mRNA [1]): 82 ± 9.8% | % KD TSLP (10 nM) (TSLP mRNA [1]): 82 ± 9.8% | IC50 (TSLP mRNA [2]): 1.5 ± 0.3 pM | Maximum % KD in DRC (TSLP mRNA [2]): 75 ± 2% | % Reduction TSLP Protein (TSLP protein): 44 ± 27.9%

25470-DC: siNA duplex: sense B AAAGuAGAAAAAAAAAuuA TTB (SEQ ID NO: 123), antisense UAAuuuuuuuuucuAcuuuUU (SEQ ID NO: 124) (sense AAAGUAGAAAAAAAAAUUATT; antisense UAAUUUUUUUUUCUACUUUUU; sense: sugars from the 5' end d4 f1 d11 f2 d3, [invAb] at 5' end, 3' end, backbone not given here; antisense: sugars from the 5' end r3 f11 m1 f4 m2, backbone not given here)
% KD mTSLP NIH3T3 (mTSLP mRNA): 19.3 ± 10.3% | % KD TSLP (TSLP mRNA [1]): 28 ± 22.6%

25471-DC: siNA duplex: sense B AGuAGAAAAAAAAAuuAAA TTB (SEQ ID NO: 125), antisense UUUAAuuuuuuuuucuAcuUU (SEQ ID NO: 126) (sense AGUAGAAAAAAAAAUUAAATT; antisense UUUAAUUUUUUUUUCUACUUU; sense: sugars from the 5' end d2 f1 d11 f2 d5, [invAb] at 5' end, 3' end, backbone not given here; antisense: sugars from the 5' end rrrmmfffffffffffmffmm, backbone not given here)
% KD mTSLP NIH3T3 (mTSLP mRNA): 6.1 ± 9.6% | % KD TSLP (TSLP mRNA [1]): 22 ± 17.1%
